One series has as its target T1, humanized GnRH receptor (Homo sapiens, UniProt P30968).
T1 construct: expressed in transfected cells; host or cells: RBL-1 cells (Rat Basophilic Leukemia)
T1 sequence (P30968 1-328): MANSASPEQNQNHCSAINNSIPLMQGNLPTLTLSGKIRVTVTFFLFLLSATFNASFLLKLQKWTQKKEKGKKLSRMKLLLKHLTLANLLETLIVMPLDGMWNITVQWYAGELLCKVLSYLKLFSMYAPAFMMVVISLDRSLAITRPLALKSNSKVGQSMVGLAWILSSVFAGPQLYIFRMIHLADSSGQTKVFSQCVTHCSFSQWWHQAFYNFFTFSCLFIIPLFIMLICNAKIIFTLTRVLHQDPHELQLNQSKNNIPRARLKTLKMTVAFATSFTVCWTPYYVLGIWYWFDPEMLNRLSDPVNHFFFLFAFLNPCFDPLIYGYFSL
Nature of the series: Antagonism on humanized GnRH receptor transfected in RBL-1 cells, fluorescence detection of cytoplasmic calcium flow. It is filed as cell-based. To be noted: RBL-1 cells transfected with humanized GnRH receptor, 8 nM LH-RH. Here is the method:
The antagonism of the compound on humanized GnRH receptor transfected in RBL-1 cells (Rat Basophilic Leukemia) was evaluated by a fluorescence method for detecting the cytoplasmic calcium flow.
The cells were suspended in HBSS buffer (Invitrogen, USA), 20 mM HEPES buffer (Invitrogen, USA) was added, and then the cells were added at an average density of 1.186×10^4 cells/well into a microwell reaction plate. Fluorescent probe (Fluo8 Direct, AAT Bioquest) was mixed with HBSS buffer (adding 20 mM HEPES buffer, pH=7.4), and the mixture was added into each well and the cells were incubated at 30° C. for 60 min. Then the reaction plate was placed in a microplate reader (FlipR Tetra, Molecular Device) for testing, the test compound or HBSS buffer (blank control) was added, after 5 min, 8 nM LH-RH was added, and the changes of the fluorescence intensity which is proportional to intracellular calcium ion concentration were measured. The fluorescence intensity of the blank control group without adding the compound was taken as 100% (inhibition rate was 0%), and the inhibition rate of the compound was calculated. The IC50 value was calculated by measuring the inhibition rate of the compound at different concentrations.

Series [1] in a line: Pharmacokinetic evaluation after intravenous or gavage administration to rats. The series is classed as in vivo, SD rats. The following applies: for AUC(0-inf) / AUC(0-t) / Cmax / MRT inf / Tmax / clearance / half-life: Sprague-Dawley (SD), rat, plasma. As for the experimental part:
(§1) The pharmacokinetics of the compound of the invention in rats and/or dogs were evaluated herein, the animal information was listed in Table B.
(§2) The compound of the present invention was administered to the animal subjects in the form of 10% DMSO+10% Kolliphor HS15+78% Saline+2% (2% HCl) solution or 78% Saline+2% (2% HCl)+20% PEG400 solution. Before administration, the animals were fasted for 12 hours but water was freely allowed. In the IV group, the dose was 1 mg/kg (Rats) or 0.5 mg/kg (dogs), blood samples were taken from vein at the following time points after administration (blood volume was about 0.2 mL): 0.083, 0.25, 0.5, 1.0, 2.0, 4.0, 6.0, 8.0 and 24 h (dogs) or 0.083, 0.25, 0.5, 1.0, 2.0, 5.0, 7.0 and 24 h (Rats), EDTA-K2 was pre-added to the blood vessels as an anticoagulant. In the gavage group, the dose was 5 mg/kg (Rats) or 2.5 mg/kg (dogs), blood samples were taken from vein at the following time points after administration (blood volume was about 0.2 mL): 0.25, 0.5, 1.0, 2.0, 4.0, 6.0, 8.0 and 24 h (dogs) or 0.25, 0.5, 1.0, 2.0, 5.0, 7.0 and 24 h (Rats), EDTA-K2 was pre-added to the blood vessels as an anticoagulant. The blood samples were centrifuged at […] for 2 minutes. The plasma was collected and kept at −20° C. or −70° C.
(§3) The above collected plasma samples were processed (after thawing of frozen plasma at room temperature, the thawed plasma was vortexed for 15 s; 10-20 μL of plasma was taken and 120-150 μL of acetonitrile solution containing internal standard was added to the plasma; the mixture was vortexed for 5 min amd centrifuged for 5 min at 4,000 rpm; 100 μL of supernatant was taken and 120-150 μL of methanol/water (v/v=1/1) was added to the suspernatant, and mixing), and then LC/MS/MS was used to analyze the concentration of the compound in plasma, and […] was used to calculate the pharmacokinetic parameters.

A short description of series [2]: Pharmacokinetic evaluation after intravenous or gavage administration to dogs. To be noted: 2.5 mg/kg; for AUC(0-inf) / AUC(0-t) / Cmax / MRT inf / Tmax / half-life: beagle, dog, plasma, intravenous, i.v group; for F: gavage group. The series is classed as in vivo, Beagle dogs. As for the experimental part:
as §1
as §2, with “In the gavage group, the dose was 5 mg/kg (Rats) or 2.5 mg/kg (dogs), blood samples were taken from vein at the following time points after administration (blood volume was about 0.2 mL): 0.25, 0.5, 1.0, 2.0, 4.0, 6.0, 8.0 and 24 h (dogs) or 0.25, 0.5, 1.0, 2.0, 5.0, 7.0 and 24 h (Rats), EDTA-K2 was pre-added to the blood vessels as an anticoagulant.” left out
as §3

For `CONC(=O)Nc1ccc(-c2sc3c(c2CN(C)C)c(=O)n(-c2cccc(-n4cccn4)n2)c(=O)n3Cc2c(F)cccc2F)cc1` [Example 5, 1-(4-(3-(6-(1H-pyrazol-1-yl)pyrid-2-yl)-1-(2,6-difluorobenzyl)-5-((dimethylamino)methyl)-2,4-dioxo-1,2,3,4-tetrahydrothieno[2,3-d]pyrimidin-6-yl)phenyl)-3-methoxyurea], the IC50 at humanized GnRH receptor was determined as 4.1 nM.

For `CONC(=O)Nc1ccc(-c2sc3c(c2CN(C)C)c(=O)n(-c2ccc(-n4cccn4)nn2)c(=O)n3Cc2c(F)cccc2F)cc1` [Example 12, 1-(4-(3-(6-(1H-pyrazol-1-yl)pyridazin-3-yl)-1-(2,6-difluorobenzyl)-5-((dimethylamino)methyl)-2,4-dioxo-1,2,3,4-tetrahydrothieno[2,3-d]pyrimidin-6-yl)phenyl)-3-methoxyurea], the 50% inhibitory concentration (IC50) on humanized GnRH receptor was found to be 3.13 nM.

Take `CONC(=O)Nc1ccc(-c2sc3c(c2CN(C)C)c(=O)n(-c2ccc(-n4cccn4)nc2)c(=O)n3Cc2c(F)cccc2F)cc1` [Example 3, 1-(4-(3-(6-(1H-pyrazol-1-yl)pyrid-3-yl)-1-(2,6-difluorobenzyl)-5-((dimethylamino)methyl)-2,4-dioxo-1,2,3,4-tetrahydrothieno[2,3-d]pyrimidin-6-yl)phenyl)-3-methoxyurea]: in series [1] (iv, i.v group, 1 mg/kg), the AUC(0-inf) stood at 184 ng·h/mL, the AUC(0-t) amounted to 179 ng·h/mL, the highest level (Cmax) was 151 ng/mL and the mean residence time MRT inf amounted to 4.58 h. Further, in series [1] (iv, i.v group, 1 mg/kg), the Tmax turned out to be 0.083 h, the clearance is 90.7 mL/min/kg and the half-life was 2.13 h. Further, in series [1] (po, i.g group, 5 mg/kg), the area under the curve AUC(0-inf) came out at 1750 ng·h/mL, the AUC(0-t) stood at 1710 ng·h/mL, the maximum concentration (Cmax) is 164 ng/mL and the MRT inf amounted to 6.4 h. Also, in series [1] (po, i.g group, 5 mg/kg), the time to peak (Tmax) amounted to 2.33 h and the half-life was 4.43 h. The F in series [1] (i.g group, 5 mg/kg) stood at 190.6%. In series [2], this molecule came in with a total exposure AUC(0-inf) of 11800 ng·h/mL, an AUC(0-t) of 9490 ng·h/mL, a Cmax of 671 ng/mL and an MRT inf of 13.2 h. Besides, in series [2], the Tmax stood at 1.67 h, the half-life was 9.44 h and the F is 140.3%. Moreover, the IC50 at humanized GnRH receptor turned out to be 1.82 nM.

On to `CONC(=O)Nc1ccc(-c2sc3c(c2CN(C)C)c(=O)n(-c2ccc(-n4nccn4)nc2)c(=O)n3Cc2c(F)cccc2F)cc1` [Example 4, 1-(4-(3-(6-(2H-1,2,3-triazol-2-yl)pyrid-3-yl)-1-(2,6-difluorobenzyl)-5-((dimethylamino)methyl)-2,4-dioxo-1,2,3,4-tetrahydrothieno[2,3-d]pyrimidin-6-yl)phenyl)-3-methoxyurea], for which, at humanized GnRH receptor, the IC50 came out at 2.22 nM.

In series [1] (iv, i.v group, 1 mg/kg), `CONC(=O)Nc1ccc(-c2sc3c(c2CN(C)C)c(=O)n(-c2ccc(-n4nccn4)cn2)c(=O)n3Cc2c(F)cccc2F)cc1` [Example 2, 1-(4-(3-(5-(2H-1,2,3-triazol-2-yl)pyrid-2-yl)-1-(2,6-difluorobenzyl)-5-((dimethylamino)methyl)-2,4-dioxo-1,2,3,4-tetrahydrothieno[2,3-d]pyrimidin-6-yl)phenyl)-3-methoxyurea] gave an AUC(0-inf) of 266 ng·h/mL, an exposure AUC(0-t) of 261 ng·h/mL, a Cmax of 352 ng/mL and an MRT inf of 1.22 h. Besides, in series [1] (iv, i.v group, 1 mg/kg), the Tmax was found to be 0.083 h, the clearance was 62.7 mL/min/kg and the half-life was 1.33 h. For the same molecule, in series [1] (po, i.g group, 5 mg/kg), the total exposure AUC(0-inf) worked out at 529 ng·h/mL, the AUC(0-t) turned out to be 519 ng·h/mL, the Cmax turned out to be 177 ng/mL and the MRT inf stood at 2.48 h. In series [1] (po, i.g group, 5 mg/kg), the Tmax was 0.667 h and the half-life was 1.91 h. This molecule showed a F in series [1] (i.g group, 5 mg/kg) of 39.8%. Also, in series [2], the AUC(0-inf) stood at 4290 ng·h/mL, the AUC(0-t) is 4130 ng·h/mL, the Cmax was determined as 720 ng/mL and the mean residence time MRT inf was 5.59 h. Also, in series [2], the time of peak concentration (Tmax) amounted to 1.33 h, the half-life was 4.41 h and the F came out at 133%. Moreover, the IC50 on humanized GnRH receptor is 3 nM.

By IC50 is commonly meant the concentration needed to halve the response being measured. Usually AUC(0-inf) stands for the area under the concentration-time curve extrapolated to infinity. A high value points to more exposure. Broadly, the AUC(0-t) is exposure summed from dosing to a finite time, without extrapolation to infinity. The term Cmax denotes the maximum level reached in the sampled fluid or tissue. As usually defined, the MRT inf is a mean duration of stay, worked out from the concentration-time curve. A word on the Tmax: it is the time at which the peak concentration occurs. The term half-life denotes the time in which the quantity being followed falls by half. Read a low half-life as rapid decline.
